Test results: patent US20240246902A1, “PRODRUGS OF 6-DIAZO-5-OXO-L-NORLEUCINE” (THE JOHNS HOPKINS UNIVERSITY, priority 2021, published 2024)
In brackets after ≈: the same amount, converted by molar mass.

Assays:
[1] = Metabolic stability in swine liver tissue homogenate; assay type: in vitro ADME; conditions: prodrug 20 μM, 37° C.
Method: (§1) The representative Compounds of the Disclosure were screened for metabolic stability in swine jejunum/liver tissue homogenates, following our previously reported methods (Zimmermann et al., J. Med. Chem., 61(9):3918-29 (2018); Tenora et al., J. Med. Chem., 62(7):3524-38 (2019)). In brief, freshly collected tissues were homogenized by probe sonication in 9× volume of 0.1 M potassium phosphate buffer over ice. Post homogenization, prodrugs were spiked at a concentration of 20 μM (in triplicate) and incubated in an orbital shaker at 37° C. for 60 min. Final concentration of DMSO in the incubations was 0.2% v/v. At each time point (0, 30, 60 min), 100 μL of sample was precipitated with 300 μL of methanol containing internal standard (IS; losartan: 0.5 μM). […] After centrifugation, 50 μL of supernatant was diluted with 50 μL of water, vortexed and submitted for analysis. Prodrug disappearance over time was measured using liquid chromatography tandem mass spectrometry (LC-MS/MS).
(§2) The processed supernatants were analyzed on a Thermo Scientific Vanquish UPLC system (equipped with Vanquish autosampler, pumps, and column compartment) hyphenated to TSQ Altis mass spectrometer (Thermo Fisher Scientific Inc., Waltham MA). […] The autosampler was operated at 4° C. […] Peak area ratios obtained from peak area counts of analyte and internal standard were used to measure the disappearance of prodrugs.

[2] = Metabolic stability in swine jejunum (gut) tissue homogenate; assay type: in vitro ADME; conditions: prodrug 20 μM, 37° C.
Method: as §1, §2

[3] = Plasma stability, mouse plasma; conditions: MP = Mouse Plasma

Row | Compound | Liver stability (% remaining at 60 min) [1] [%] | Gut Stability (% remaining at 60 min) [2] [%] | Efflux (Efflux) | solubility (Solubility) [µg/mL] | Plasma Stability (% remaining at 60 min) [3]
1 | CN(C)CC(=O)N[C@@H](Cc1cn(C)c2ccccc12)C(=O)N[C@@H](CCC(=O)C=[N+]=[N-])C(=O)OC(C)(C)C [Compound 12a, tert-Butyl (S)-6-diazo-2-((S)-2-(2-(dimethylamino)acetamido)-3-(1-methyl-1H-indol-3-yl)propanamido)-5-oxohexanoate] | 75 ± 1 | 104 ± 2 | 80 |  | 
2 | CCCCCC(=O)N[C@@H](CCC(=O)C=[N+]=[N-])C(=O)OC(C)C [Compound 5c, Isopropyl (S)-6-diazo-2-hexanamido-5-oxohexanoate] | 0 ± 0 |  |  | ~2000 (≈ 6.42 mM) | 
3 | CN(C)CC(=O)N[C@@H](Cc1cccc(F)c1)C(=O)N[C@@H](CCC(=O)C=[N+]=[N-])C(=O)OC(C)(C)C [Compound 21a, tert-Butyl (S)-6-diazo-2-((S)-2-(2-(dimethylamino)acetamido)-3-(3-fluorophenyl)propanamido)-5-oxohexanoate] | 75 ± 4 |  | 46.71 |  | 
4 | C[C@H](NC(=O)CN(C)C)C(=O)N[C@@H](CCC(=O)C=[N+]=[N-])C(=O)OC(C)(C)C [Compound 13a, tert-Butyl (S)-6-diazo-2-((S)-2-(2-(dimethylamino)acetamido)propanamido)-5-oxohexanoate] | 95 ± 1 | 99 ± 2 | 32 |  | 
5 | CC(C)(C)OC(=O)[C@H](CCC(=O)C=[N+]=[N-])NC(=O)[C@H](Cc1c[nH]c2ccccc12)NC(=O)CN1CCOCC1 [Compound 11c, tert-Butyl (S)-2-((S)-3-(1H-indol-3-yl)-2-(2-morpholinoacetamido)propanamido)-6-diazo-5-oxohexanoate] | 80 ± 2 | 95 ± 1 | 106 |  | 
6 | CC(C)OC(=O)[C@H](CCC(=O)C=[N+]=[N-])NC(=O)CN(C)C [Compound 5d, Isopropyl (S)-6-diazo-2-(2-(dimethylamino)acetamido)-5-oxohexanoate] | 76 ± 0 | 98 ± 2 | 2 |  | 
7 | CC(=O)N[C@@H](Cc1c[nH]c2ccccc12)C(=O)N[C@@H](CCC(=O)C=[N+]=[N-])C(=O)OC(CF)CF [Compound 28c, 1,3-Difluoropropan-2-yl (S)-2-((S)-2-acetamido-3-(1H-indol-3-yl)propanamido)-6-diazo-5-oxohexanoate] | 1 ± 0 |  | 11 |  | 
8 | CC(C)C[C@H](NC(=O)CN(C)C)C(=O)N[C@@H](CCC(=O)C=[N+]=[N-])C(=O)OC(C)(C)C [Compound 16a, tert-Butyl (S)-6-diazo-2-((S)-2-(2-(dimethylamino)acetamido)-4-methylpentanamido)-5-oxohexanoate] | 87 ± 0 | 87 ± 1 | 45 |  | 
9 | CC(=O)N[C@@H](Cc1c[nH]c2ccccc12)C(=O)N[C@@H](CCC(=O)C=[N+]=[N-])C(=O)OC(C)(C)C [Compound 11a, tert-Butyl (S)-2-((S)-2-acetamido-3-(1H-indol-3-yl)propanamido)-6-diazo-5-oxohexanoate] | 95 ± 3 | 88 ± 4 | 41 |  | 62 ± 1 (MP) %
10 | CCOC(=O)[C@H](CCC(=O)C=[N+]=[N-])NC(C)=O [Compound 5k, Ethyl (S)-2-acetamido-6-diazo-5-oxohexanoate] | 83 ± 2 |  | 1 |  | 
11 | CCCC(=O)N[C@@H](CCC(=O)C=[N+]=[N-])C(=O)OC(C)C [Compound 5b, Isopropyl (S)-2-butyramido-6-diazo-5-oxohexanoate] | 12 ± 1 |  |  | ~5000 (≈ 17.6 mM) | 
12 | COCCOCCOC(=O)[C@H](CCC(=O)C=[N+]=[N-])NC(C)=O [Compound 5m, 2-(2-Methoxyethoxy)ethyl (S)-2-acetamido-6-diazo-5-oxohexanoate] | 57 ± 0 | 87 ± 2 | 5 |  | 
13 | CC(C)OC(=O)[C@H](CCC(=O)C=[N+]=[N-])NC(=O)[C@H](Cc1c[nH]c2ccccc12)NC(=O)C(C)(C)C [Compound 8d, Isopropyl (S)-2-((S)-3-(1H-indol-3-yl)-2-pivalamidopropanamido)-6-diazo-5-oxohexanoate] | 2 ± 0 | 9 ± 1 |  |  | 
14 | CC(=O)N[C@@H](CCC(=O)C=[N+]=[N-])C(=O)OC(C)(C)C [Compound 5g, tert-Butyl (S)-2-acetamido-6-diazo-5-oxohexanoate] | 2 ± 0 | 93 ± 1 | 1 |  | 
15 | CN(C)CC(=O)N[C@@H](Cc1ccc(F)cc1)C(=O)N[C@@H](CCC(=O)C=[N+]=[N-])C(=O)OC(C)(C)C [Compound 22a, tert-Butyl (S)-6-diazo-2-((S)-2-(2-(dimethylamino)acetamido)-3-(4-fluorophenyl)propanamido)-5-oxohexanoate] | 62 ± 1 |  | 52.07 |  | 
16 | CC(=O)NCC(=O)N[C@@H](CCC(=O)C=[N+]=[N-])C(=O)OC(C)(C)C [Compound 14a, tert-Butyl (S)-2-(2-acetamidoacetamido)-6-diazo-5-oxohexanoate] | 88 ± 1 | 96 ± 0 |  |  | 
17 | CNC(=O)[C@H](CCC(=O)C=[N+]=[N-])NC(=O)[C@H](Cc1c[nH]c2ccccc12)NC(C)=O [Compound 31b, (S)-2-((S)-2-Acetamido-3-(1H-indol-3-yl)propanamido)-6-diazo-N-methyl-5-oxohexanamide] | 103 ± 4 | 90 ± 2 | 1 |  | 
18 | CC(C)(C)OC(=O)[C@H](CCC(=O)C=[N+]=[N-])NC(=O)C(Cl)Cl [Compound 5i, tert-Butyl (S)-6-diazo-2-(2,2-dichloroacetamido)-5-oxohexanoate] | 97 ± 0 | 110 ± 2 | 1 |  | 
19 | CN(C)CC(=O)NCCC(=O)N[C@@H](CCC(=O)C=[N+]=[N-])C(=O)OC(C)(C)C [Compound 25a, tert-Butyl (S)-6-diazo-2-(3-(2-(dimethylamino)acetamido)propanamido)-5-oxohexanoate] | 99 ± 1 | 92 ± 4 | 16 |  | 
20 | CC(C)OC(=O)[C@H](CCC(=O)C=[N+]=[N-])NC(=O)[C@H](Cc1c[nH]c2ccccc12)NC(=O)c1cccnc1 [Compound 8l, Isopropyl (S)-2-((S)-3-(1H-indol-3-yl)-2-(nicotinamido)propanamido)-6-diazo-5-oxohexanoate] | 0 ± 0 | 2 ± 0 |  |  | 
21 | COC(=O)[C@H](CCC(=O)C=[N+]=[N-])NC(=O)[C@H](Cc1c[nH]c2ccccc12)NC(=O)CN(C)C [Compound 28a, Methyl (S)-6-diazo-2-((S)-2-(2-(dimethylamino)acetamido)-3-(1H-indol-3-yl)propanamido)-5-oxohexanoate] | 0 ± 0 |  | 21 |  | 
22 | [2H]C([2H])([2H])OC(=O)[C@H](CCC(=O)C=[N+]=[N-])NC(=O)[C@H](Cc1c[nH]c2ccccc12)NC(C)=O [Compound 28b, Methyl-d3 (S)-2-((S)-2-acetamido-3-(1H-indol-3-yl)propanamido)-6-diazo-5-oxohexanoate] | 2 ± 0 |  | 10 |  | 
23 | CC(C)OC(=O)[C@H](CCC(=O)C=[N+]=[N-])NC(=O)[C@H](Cc1c[nH]c2ccccc12)NC(=O)C(C)C [Compound 8c, Isopropyl (S)-2-((S)-3-(1H-indol-3-yl)-2-isobutyramidopropanamido)-6-diazo-5-oxohexanoate] | 13 ± 0 | 13 ± 7 |  |  | 
24 | CC(C)(C)OC(=O)[C@H](CCC(=O)C=[N+]=[N-])NC(=O)CNC(=O)CN1CCOCC1 [Compound 14c, tert-Butyl (S)-6-diazo-2-(2-(2-morpholinoacetamido)acetamido)-5-oxohexanoate] | 100 ± 1 | 96 ± 1 | 15 |  | 
